Reference: ChEMBL document CHEMBL1148458, “Incorporating molecular shape into the alignment-free Grid-Independent Descriptors” (J Med Chem, 2004)

Legend:
Cathepsin D = Cathepsin D (Homo sapiens, UniProt P07339); assay: Binding affinity towards human cathepsin D.
Plasmepsin II = Plasmepsin II (Plasmodium falciparum, UniProt P46925); assay: Binding affinity towards plasmepsin-2 in Plasmodium falciparum.
Adenosine receptor A1 = molecular target: T1, Adenosine receptor A1 (Homo sapiens, UniProt P30542); assay: Binding affinity at adenosine A1 receptor.
T1 sequence (P30542 whole entry): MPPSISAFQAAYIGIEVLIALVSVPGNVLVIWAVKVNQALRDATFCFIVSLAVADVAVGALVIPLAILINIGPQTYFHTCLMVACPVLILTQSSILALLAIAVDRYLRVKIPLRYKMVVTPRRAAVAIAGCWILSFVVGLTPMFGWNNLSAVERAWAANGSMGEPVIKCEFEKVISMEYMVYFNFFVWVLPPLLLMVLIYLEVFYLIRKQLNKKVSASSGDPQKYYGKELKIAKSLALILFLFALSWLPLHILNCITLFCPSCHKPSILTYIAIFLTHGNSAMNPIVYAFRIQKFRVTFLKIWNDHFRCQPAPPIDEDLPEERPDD

Chain of Plasmepsin II (P46925 whole entry): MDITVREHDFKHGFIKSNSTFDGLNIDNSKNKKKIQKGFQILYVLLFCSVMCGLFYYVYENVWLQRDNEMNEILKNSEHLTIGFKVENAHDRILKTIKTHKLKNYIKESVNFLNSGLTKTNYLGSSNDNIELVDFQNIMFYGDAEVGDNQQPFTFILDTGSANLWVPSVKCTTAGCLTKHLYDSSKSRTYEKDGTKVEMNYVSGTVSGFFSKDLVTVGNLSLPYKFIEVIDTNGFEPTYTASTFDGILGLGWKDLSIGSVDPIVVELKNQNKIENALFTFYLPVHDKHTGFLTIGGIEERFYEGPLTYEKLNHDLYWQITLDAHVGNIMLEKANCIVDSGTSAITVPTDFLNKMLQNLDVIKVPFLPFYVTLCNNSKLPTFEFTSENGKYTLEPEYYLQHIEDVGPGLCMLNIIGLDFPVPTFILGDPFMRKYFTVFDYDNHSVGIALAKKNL
Chain of Cathepsin D (P07339 65-162 limits assumed): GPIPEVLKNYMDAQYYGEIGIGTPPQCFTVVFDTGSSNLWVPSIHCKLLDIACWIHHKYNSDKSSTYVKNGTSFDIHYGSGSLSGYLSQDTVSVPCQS
Chain of Cathepsin D (P07339 169-412 limits assumed): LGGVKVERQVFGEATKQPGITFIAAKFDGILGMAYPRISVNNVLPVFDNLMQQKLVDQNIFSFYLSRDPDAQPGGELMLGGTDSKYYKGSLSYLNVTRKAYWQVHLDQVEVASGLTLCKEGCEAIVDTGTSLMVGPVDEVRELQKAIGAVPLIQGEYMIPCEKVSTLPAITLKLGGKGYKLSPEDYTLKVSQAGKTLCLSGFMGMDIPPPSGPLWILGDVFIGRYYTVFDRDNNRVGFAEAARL

| SMILES | Ki (Cathepsin D) [nM] | Ki (Plasmepsin II) [nM] | Ki (Adenosine receptor A1) [nM] |
| --- | --- | --- | --- |
| CCCCNC(=O)CC(O)C(Cc1ccccc1)NC(=O)C(NC(=O)COc1ccc2ccccc2c1)c1ccccc1 (stereo not given) | 110 | 5800 |  |
| CC1C(=O)c2nc(CCCN3N=C(c4ccccc4)CCC3=O)[nH]c2N(C)C1=O (stereo not given) |  |  | 10800 |
| CCC(C)C(NC(=O)CN1CCC(C(N)=O)(c2ccccc2)CC1)C(=O)NC(CC(C)C)C(O)CC(=O)NCCCc1ccccc1 (stereo not given) | 3900 | 600 |  |
| CCCCNC(=O)CC(O)C(Cc1ccccc1)NC(=O)C(CC(C)C)NC(=O)COc1ccc2ccccc2c1 (stereo not given) | 920 | 5600 |  |
| CCCC1C(=O)c2nc(CCN3N=C(Cl)CCC3=O)[nH]c2N(C)C1=O (stereo not given) |  |  | 470 |
| CC1C(=O)c2nc(CCN3N=C(c4ccccc4)CCC3=O)[nH]c2N(C)C1=O (stereo not given) |  |  | 6100 |
| CCCCNC(=O)CC(O)C(Cc1ccccc1)NC(=O)C(Cc1ccccc1)NC(=O)COc1ccc2ccccc2c1 (stereo not given) | 1300 | 12000 |  |
| CC1C(=O)c2nc(CCCN3N=C(Cl)CCC3=O)[nH]c2N(C)C1=O (stereo not given) |  |  | 8800 |
| CC1C(=O)c2nc(CCCCN3N=C(Cl)CCC3=O)[nH]c2N(C)C1=O (stereo not given) |  |  | 370 |
| CCCCNC(=O)CC(O)C(CC(C)C)NC(=O)C(CCC(N)=O)NC(=O)COc1ccc2ccccc2c1 (stereo not given) | 200 | > 30000 |  |
| CCCCNC(=O)CC(O)C(Cc1ccccc1)NC(=O)[C@@H](NC(=O)c1ccc(CN2CCCC2)cc1)[C@@H](C)CC (stereo not given in full) | 1200 |  |  |
| CCCC1C(=O)c2nc(CCCCN3N=C(c4ccccc4)CCC3=O)[nH]c2N(C)C1=O (stereo not given) |  |  | 380 |
| CCCCNC(=O)CC(O)C(Cc1ccccc1)NC(=O)C(NC(=O)Cc1ccc2ccccc2c1)C(C)CC (stereo not given) | 320 | 50 |  |
| CCCC1C(=O)c2nc(CCCN3N=C(Cl)CCC3=O)[nH]c2N(C)C1=O (stereo not given) |  |  | 1200 |
| CCCCNC(=O)CC(O)C(CC(C)C)NC(=O)C(NC(=O)CN1CCC(C(N)=O)(c2ccccc2)CC1)C(C)CC (stereo not given) | 5500 | 410 |  |
| CCCC1C(=O)c2nc(CCN3N=C(c4ccccc4)CCC3=O)[nH]c2N(C)C1=O (stereo not given) |  |  | 760 |

| SMILES | Ki (Cathepsin D) [nM] | Ki (Plasmepsin II) [nM] | Ki (Adenosine receptor A1) [nM] |
| --- | --- | --- | --- |
| CC1C(=O)c2nc(CN3N=C(Cl)CCC3=O)[nH]c2N(C)C1=O (stereo not given) |  |  | > 100000 |
| CC1C(=O)c2nc(CCCN3N=CCCC3=O)[nH]c2N(C)C1=O (stereo not given) |  |  | 12700 |
| CCCCNC(=O)CC(O)C(CC(C)C)NC(=O)C(NC(=O)Cc1cc(OC)ccc1C)C(C)CC (stereo not given) | 2400 | 220 |  |
| CCCC1C(=O)c2nc(CN3N=C(c4ccccc4)CCC3=O)[nH]c2N(C)C1=O (stereo not given) |  |  | 2270 |
| CC1C(=O)c2nc(CCN3N=C(Cl)CCC3=O)[nH]c2N(C)C1=O (stereo not given) |  |  | 14700 |
| CCCC1C(=O)c2nc(CCCN3N=C(c4ccccc4)CCC3=O)[nH]c2N(C)C1=O (stereo not given) |  |  | 810 |
| CC1C(=O)c2nc(CCCCN3N=C(c4ccccc4)CCC3=O)[nH]c2N(C)C1=O (stereo not given) |  |  | 2120 |
| CCCC1C(=O)c2nc(CCCCN3N=C(Cl)CCC3=O)[nH]c2N(C)C1=O (stereo not given) |  |  | 190 |
| CCCC1C(=O)c2nc(CN3N=C(Cl)CCC3=O)[nH]c2N(C)C1=O (stereo not given) |  |  | 9200 |
| CCCCNC(=O)CC(O)C(CC(C)C)NC(=O)C(NC(=O)Cc1cc(OC)ccc1C)C(C)C (stereo not given) | 1600 | 500 |  |
| CC1C(=O)c2nc(CCN3N=CCCC3=O)[nH]c2N(C)C1=O (stereo not given) |  |  | 12800 |
| CCCCNC(=O)CC(O)C(CC(C)C)NC(=O)C(NC(=O)Cc1ccc2ccccc2c1)C(C)CC (stereo not given) | 50 | 90 |  |
| CCCCNC(=O)CC(O)C(CC(C)C)NC(=O)C(NC(=O)COc1ccc2ccccc2c1)c1ccccc1 (stereo not given) | 200 | 560 |  |
| CC1C(=O)c2nc(CN3N=C(c4ccccc4)CCC3=O)[nH]c2N(C)C1=O (stereo not given) |  |  | 53800 |
| CCCCNC(=O)CC(O)C(CC(C)C)NC(=O)C(NC(=O)Cc1cc(OC)ccc1C)c1ccccc1 (stereo not given) | 2100 | 590 |  |
| CCCCNC(=O)C[C@H](O)[C@H](Cc1ccccc1)NC(=O)[C@@H](NC(=O)COc1ccc2ccccc2c1)C(C)CC (stereo not given in full) | 560 | 110 |  |
